Laboratory results as given in paper PMC10436550, “Subacute toxicity evaluations of LPM3480392 in rats, a full µ-opioid receptor biased agonist” (Frontiers in Pharmacology, 2023).

What was measured:
µ-opioid receptor (MOR) = tested on: µ-opioid receptor (MOR); design: method as in Yang et al., 2022; details: ref Yang et al., 2022, cited from earlier work
Sprague Dawley (SD) rats [1] = assay: Ophthalmic examination; type: in vivo, rat; details: 2.4 mg/kg/day; both genders; end of dosing phase and recovery phase
Experimental: The examination was conducted on rats in control and 2.4 mg/kg/day groups at the end of dosing phase (Day 27) and at the end of recovery phase (Recovery day 27). The mydriasis (eye instillation, 1-2 drops/eye) was conducted using Mydrin-P (compound tropicamide eye drops) before examination. Binocular indirect ophthalmoscope was used to examine conjunctiva, cornea, iris, lens, anterior chamber, posterior chamber and fundus.

Sprague Dawley (SD) rats [2] = assay: Histopathology, 4-week subacute toxicity study; type: in vivo, rat; details: for Epididymis: Cell debris, lumen, Grade: 1 (minimal), animals / Epididymis: Cell debris, lumen, Grade: 3 (moderate), animals / Epididymis: Cell debris, lumen, Total Incidence / Epididymis: Sperm, decreased, lumen, Grade: 4 (marked), animals / Epididymis: Sperm, decreased, lumen, Total Incidence / Testis: Degeneration, tubule, Grade: 2 (mild), animals / Testis: Degeneration, tubule, Total Incidence: M
Experimental: The tissues in the Table 2 were preserved in 10% neutral phosphate-buffered formalin. Bilateral eyes, optic nerves, testes, epididymides and Harderian glands were fixed in modified Davidson’s solution. For all the above tissues in all groups, sampling, paraffin embedding, sectioning and hematoxylin-eosin staining was performed, followed by histopathology examination microscopically with light microscopy.

Sprague Dawley (SD) rats [3] = assay: Urinalysis, 4-week subacute toxicity study; type: in vivo, rat
Experimental: Urine samples were directly collected from the metabolic cage at the end of dosing phase (Day 26) and at the end of recovery phase (Recovery Day 28), respectively. Urinalysis parameters in Table 1 were evaluated using CLINITEK Atlas automatic urine analyzer (Germany).

[4] = 0.6 mg/kg/day, end of dosing phase, 10 examined
[5] = 1.2 mg/kg/day, end of dosing phase, 10 examined
[6] = 2.4 mg/kg/day, end of dosing phase, 9 examined
[7] = 0.6 mg/kg/day, End of dosing phase, N 5
[8] = 0.6 mg/kg/day, End of recovery phase, N 5
[9] = 1.2 mg/kg/day, End of dosing phase, N 5
[10] = 1.2 mg/kg/day, End of recovery phase, N 5
[11] = 2.4 mg/kg/day, End of dosing phase, N 4
[12] = 2.4 mg/kg/day, End of dosing phase, N 5
[13] = 2.4 mg/kg/day, End of recovery phase, N 4
[14] = 2.4 mg/kg/day, End of recovery phase, N 5

Fc1ccc([C@]2(CCNCc3cccc(Cl)c3)CCO[C@]3(CCOC3)C2)nc1 [LPM3480392]
Emax, in vitro biased agonism (µ-opioid receptor (MOR)): 91.4% | EC50 (µ-opioid receptor (MOR); read-out: EC50, in vitro biased agonism): 0.35 nM | Ophthalmic examination findings (Sprague Dawley (SD) rats [1]): No abnormalities | Epididymis: Cell debris, lumen, Grade: 1 (minimal), animals (Sprague Dawley (SD) rats [2]; [4]): 0 | Epididymis: Cell debris, lumen, Grade: 3 (moderate), animals (Sprague Dawley (SD) rats [2]; [4]): 0 | Epididymis: Cell debris, lumen, Total Incidence (Sprague Dawley (SD) rats [2]; [4]): 0 | Epididymis: Sperm, decreased, lumen, Grade: 4 (marked), animals (Sprague Dawley (SD) rats [2]; [4]): 0 | Epididymis: Sperm, decreased, lumen, Total Incidence (Sprague Dawley (SD) rats [2]; [4]): 0 | Testis: Degeneration, tubule, Grade: 2 (mild), animals (Sprague Dawley (SD) rats [2]; [4]): 0 | Testis: Degeneration, tubule, Total Incidence (Sprague Dawley (SD) rats [2]; [4]): 0 | Epididymis: Cell debris, lumen, Grade: 1 (minimal), animals (Sprague Dawley (SD) rats [2]; [5]): 0 | Epididymis: Cell debris, lumen, Grade: 3 (moderate), animals (Sprague Dawley (SD) rats [2]; [5]): 0 | Epididymis: Cell debris, lumen, Total Incidence (Sprague Dawley (SD) rats [2]; [5]): 0 | Epididymis: Sperm, decreased, lumen, Grade: 4 (marked), animals (Sprague Dawley (SD) rats [2]; [5]): 0 | Epididymis: Sperm, decreased, lumen, Total Incidence (Sprague Dawley (SD) rats [2]; [5]): 0 | Testis: Degeneration, tubule, Grade: 2 (mild), animals (Sprague Dawley (SD) rats [2]; [5]): 0 | Testis: Degeneration, tubule, Total Incidence (Sprague Dawley (SD) rats [2]; [5]): 0 | Epididymis: Cell debris, lumen, Grade: 1 (minimal), animals (Sprague Dawley (SD) rats [2]; [6]): 1 | Epididymis: Cell debris, lumen, Grade: 3 (moderate), animals (Sprague Dawley (SD) rats [2]; [6]): 1 | Epididymis: Cell debris, lumen, Total Incidence (Sprague Dawley (SD) rats [2]; [6]): 2 | Epididymis: Sperm, decreased, lumen, Grade: 4 (marked), animals (Sprague Dawley (SD) rats [2]; [6]): 1 | Epididymis: Sperm, decreased, lumen, Total Incidence (Sprague Dawley (SD) rats [2]; [6]): 1 | Testis: Degeneration, tubule, Grade: 2 (mild), animals (Sprague Dawley (SD) rats [2]; [6]): 1 | Testis: Degeneration, tubule, Total Incidence (Sprague Dawley (SD) rats [2]; [6]): 1 | Microscopic changes in brain, heart, liver, spleen, lungs, kidney, adrenal gland, thymus, lymph node, gastrointestinal tract (Sprague Dawley (SD) rats [2]; end of dosing phase and recovery phase): no microscopic changes | Mild tubular degeneration of the testis, incidence (Sprague Dawley (SD) rats [2]; males, 2.4 mg/kg/day, end of dosing phase): 1/9 | KET (mmol/L) of males: animals with grade 1.5 (Sprague Dawley (SD) rats [3]; [7]): 3 | KET (mmol/L) of males: animals with grade 3.9 (Sprague Dawley (SD) rats [3]; [7]): 1 | KET (mmol/L) of males: animals with grade — (Sprague Dawley (SD) rats [3]; [7]): 1 | NIT of males: animals with grade + (Sprague Dawley (SD) rats [3]; [7]): 2 | NIT of males: animals with grade — (Sprague Dawley (SD) rats [3]; [7]): 3 | pH of females: animals with grade 7.0 (Sprague Dawley (SD) rats [3]; [7]): 1 | pH of females: animals with grade 7.5 (Sprague Dawley (SD) rats [3]; [7]): 3 | pH of females: animals with grade 8.5 (Sprague Dawley (SD) rats [3]; [7]): 1 | KET (mmol/L) of males: animals with grade 1.5 (Sprague Dawley (SD) rats [3]; [8]): 2 | KET (mmol/L) of males: animals with grade 3.9 (Sprague Dawley (SD) rats [3]; [8]): 1 | KET (mmol/L) of males: animals with grade — (Sprague Dawley (SD) rats [3]; [8]): 2 | NIT of males: animals with grade + (Sprague Dawley (SD) rats [3]; [8]): 3 | NIT of males: animals with grade — (Sprague Dawley (SD) rats [3]; [8]): 2 | pH of females: animals with grade 6.0 (Sprague Dawley (SD) rats [3]; [8]): 0 | pH of females: animals with grade 6.5 (Sprague Dawley (SD) rats [3]; [8]): 0 | pH of females: animals with grade 7.0 (Sprague Dawley (SD) rats [3]; [8]): 0 | pH of females: animals with grade 7.5 (Sprague Dawley (SD) rats [3]; [8]): 4 | pH of females: animals with grade 8.0 (Sprague Dawley (SD) rats [3]; [8]): 1 | KET (mmol/L) of males: animals with grade 1.5 (Sprague Dawley (SD) rats [3]; [9]): 3 | KET (mmol/L) of males: animals with grade 3.9 (Sprague Dawley (SD) rats [3]; [9]): 1 | KET (mmol/L) of males: animals with grade — (Sprague Dawley (SD) rats [3]; [9]): 1 | NIT of males: animals with grade + (Sprague Dawley (SD) rats [3]; [9]): 1 | NIT of males: animals with grade — (Sprague Dawley (SD) rats [3]; [9]): 4 | pH of females: animals with grade 7.0 (Sprague Dawley (SD) rats [3]; [9]): 1 | pH of females: animals with grade 7.5 (Sprague Dawley (SD) rats [3]; [9]): 3 | pH of females: animals with grade 8.5 (Sprague Dawley (SD) rats [3]; [9]): 1 | KET (mmol/L) of males: animals with grade 1.5 (Sprague Dawley (SD) rats [3]; [10]): 2 | KET (mmol/L) of males: animals with grade 3.9 (Sprague Dawley (SD) rats [3]; [10]): 1 | KET (mmol/L) of males: animals with grade — (Sprague Dawley (SD) rats [3]; [10]): 2 | NIT of males: animals with grade + (Sprague Dawley (SD) rats [3]; [10]): 1 | NIT of males: animals with grade — (Sprague Dawley (SD) rats [3]; [10]): 4 | pH of females: animals with grade 6.0 (Sprague Dawley (SD) rats [3]; [10]): 1 | pH of females: animals with grade 6.5 (Sprague Dawley (SD) rats [3]; [10]): 0 | pH of females: animals with grade 7.0 (Sprague Dawley (SD) rats [3]; [10]): 2 | pH of females: animals with grade 7.5 (Sprague Dawley (SD) rats [3]; [10]): 1 | pH of females: animals with grade 8.0 (Sprague Dawley (SD) rats [3]; [10]): 1 | pH of females: animals with grade 7.0 (Sprague Dawley (SD) rats [3]; [11]): 0 | pH of females: animals with grade 7.5 (Sprague Dawley (SD) rats [3]; [11]): 1 | pH of females: animals with grade 8.5 (Sprague Dawley (SD) rats [3]; [11]): 3 | KET (mmol/L) of males: animals with grade 1.5 (Sprague Dawley (SD) rats [3]; [12]): 0 | KET (mmol/L) of males: animals with grade 3.9 (Sprague Dawley (SD) rats [3]; [12]): 0 | KET (mmol/L) of males: animals with grade — (Sprague Dawley (SD) rats [3]; [12]): 5 | NIT of males: animals with grade + (Sprague Dawley (SD) rats [3]; [12]): 1 | NIT of males: animals with grade — (Sprague Dawley (SD) rats [3]; [12]): 4 | pH of females: animals with grade 6.0 (Sprague Dawley (SD) rats [3]; [13]): 0 | pH of females: animals with grade 6.5 (Sprague Dawley (SD) rats [3]; [13]): 2 | pH of females: animals with grade 7.0 (Sprague Dawley (SD) rats [3]; [13]): 2 | pH of females: animals with grade 7.5 (Sprague Dawley (SD) rats [3]; [13]): 0 | pH of females: animals with grade 8.0 (Sprague Dawley (SD) rats [3]; [13]): 0 | KET (mmol/L) of males: animals with grade 1.5 (Sprague Dawley (SD) rats [3]; [14]): 1 | KET (mmol/L) of males: animals with grade 3.9 (Sprague Dawley (SD) rats [3]; [14]): 0 | KET (mmol/L) of males: animals with grade — (Sprague Dawley (SD) rats [3]; [14]): 4 | NIT of males: animals with grade + (Sprague Dawley (SD) rats [3]; [14]): 0 | NIT of males: animals with grade — (Sprague Dawley (SD) rats [3]; [14]): 5
